Data published in ChEMBL document CHEMBL4229381, “New cytokinin derivatives possess UVA and UVB photoprotective effect on human skin cells and prevent oxidative stress” (Eur J Med Chem, 2018).
Each block holds one compound with its values, some of them ahead of it. Calls of active or inactive are those of the source. The rule behind the calls is not given here.

Tests used:
NHDF [1] = assay: Phototoxicity in human NHDF cells assessed as reduction in cell viability preincubated for 60 mins followed by 5 J/cm2 UVA irradiation and measured after 24 hrs by neutral red uptake assay; assay type: cell-based; details: light or radiation study
HaCaT [2] = assay: Phototoxicity in human HaCaT cells assessed as reduction in cell viability preincubated for 60 mins followed by 7.5 J/cm2 UVA irradiation and measured after 24 hrs by neutral red uptake assay; assay type: cell-based; details: light or radiation study
[3] = Stability of the compound in pH 7 solution at 10^-4 M after 1 hr by HPLC analysis; assay type: physicochemical; details: read-out: Stability
[4] = Stability of the compound in pH 6 solution at 10^-4 M after 1 hr by HPLC analysis; assay type: physicochemical; details: read-out: Stability
[5] = Stability of the compound in pH 5 solution at 10^-4 M after 1 hr by HPLC analysis; assay type: physicochemical; details: read-out: Stability
[6] = Stability of the compound in pH 4 solution at 10^-4 M after 1 hr by HPLC analysis; assay type: physicochemical; details: read-out: Stability
[7] = Stability of the compound in pH 3 solution at 10^-4 M after 1 hr by HPLC analysis; assay type: physicochemical; details: read-out: Stability
[8] = Stability of the compound in pH 7 solution at 10^-4 M after 24 hrs by HPLC analysis; assay type: physicochemical; details: read-out: Stability
[9] = Stability of the compound in pH 6 solution at 10^-4 M after 24 hrs by HPLC analysis; assay type: physicochemical; details: read-out: Stability
[10] = Stability of the compound in pH 5 solution at 10^-4 M after 24 hrs by HPLC analysis; assay type: physicochemical; details: read-out: Stability
[11] = Stability of the compound in pH 4 solution at 10^-4 M after 24 hrs by HPLC analysis; assay type: physicochemical; details: read-out: Stability
[12] = Stability of the compound in pH 3 solution at 10^-4 M after 24 hrs by HPLC analysis; assay type: physicochemical; details: read-out: Stability
[13] = Antioxidant activity assessed as trolox equivalent of AAPH-induced radical scavenging activity at 1 uM pretreated for 15 mins followed by […] challenge measured every 3 mins over 90 mins by ORAC-FL assay; assay type: functional
Nicotiana tabacum = assay: Growth promoting activity in tobacco callus assessed as callus weight at 10^-5 mol/L after 4 weeks relative to control; assay type: functional
Amaranthus caudatus = assay: Growth promoting activity in Amaranthus caudatus var. atropurpurea seeds by measuring betacyanin at 10^-4 mol/L after 48 hrs relative to control; assay type: functional
Triticum aestivum = assay: Anti-senescent activity in leaf of Triticum aestivum cv. Hereward seedlings by measuring chlorophyll retention at 10^-4 mol/L after 4 days relative to control; assay type: functional
HaCaT [14] = assay: Cytotoxicity in human HaCaT cells assessed as reduction in cell viability at 50 uM after 24 hrs by resazurin dye-based fluorescence assay relative to control
BJ = assay: Cytotoxicity in human BJ cells assessed as reduction in cell viability at 50 uM after 24 hrs by resazurin dye-based fluorescence assay relative to control
[15] = Cytotoxicity in human NHDF cells assessed as cell viability at 3.9 uM after 24 hrs by neutral red uptake assay relative to control; assay type: cell-based; details: read-out: Activity
[16] = Cytotoxicity in human NHDF cells assessed as cell viability at 7.8 uM after 24 hrs by neutral red uptake assay relative to control; assay type: cell-based; details: read-out: Activity
[17] = Cytotoxicity in human NHDF cells assessed as cell viability at 15.6 uM after 24 hrs by neutral red uptake assay relative to control; assay type: cell-based; details: read-out: Activity
[18] = Cytotoxicity in human NHDF cells assessed as cell viability at 31.3 uM after 24 hrs by neutral red uptake assay relative to control; assay type: cell-based; details: read-out: Activity
[19] = Cytotoxicity in human NHDF cells assessed as cell viability at 62.5 uM after 24 hrs by neutral red uptake assay relative to control; assay type: cell-based; details: read-out: Activity
[20] = Cytotoxicity in human NHDF cells assessed as cell viability at 125 uM after 24 hrs by neutral red uptake assay relative to control; assay type: cell-based; details: read-out: Activity
[21] = Phototoxicity in human NHDF cells assessed as cell viability at 3.9 uM preincubated for 60 mins followed by 5 J/cm2 UVA irradiation and measured after 24 hrs by neutral red uptake assay relative to control; assay type: cell-based; details: read-out: Activity
[22] = Phototoxicity in human NHDF cells assessed as cell viability at 7.8 uM preincubated for 60 mins followed by 5 J/cm2 UVA irradiation and measured after 24 hrs by neutral red uptake assay relative to control; assay type: cell-based; details: read-out: Activity
[23] = Phototoxicity in human NHDF cells assessed as cell viability at 15.6 uM preincubated for 60 mins followed by 5 J/cm2 UVA irradiation and measured after 24 hrs by neutral red uptake assay relative to control; assay type: cell-based; details: read-out: Activity
[24] = Phototoxicity in human NHDF cells assessed as cell viability at 31.3 uM preincubated for 60 mins followed by 5 J/cm2 UVA irradiation and measured after 24 hrs by neutral red uptake assay relative to control; assay type: cell-based; details: read-out: Activity
[25] = Phototoxicity in human NHDF cells assessed as cell viability at 62.5 uM preincubated for 60 mins followed by 5 J/cm2 UVA irradiation and measured after 24 hrs by neutral red uptake assay relative to control; assay type: cell-based; details: read-out: Activity
[26] = Phototoxicity in human NHDF cells assessed as cell viability at 125 uM preincubated for 60 mins followed by 5 J/cm2 UVA irradiation and measured after 24 hrs by neutral red uptake assay relative to control; assay type: cell-based; details: read-out: Activity
[27] = Cytotoxicity in human HaCaT cells assessed as cell viability at 3.9 uM after 24 hrs by neutral red uptake assay relative to control; assay type: cell-based; details: read-out: Activity
[28] = Cytotoxicity in human HaCaT cells assessed as cell viability at 7.8 uM after 24 hrs by neutral red uptake assay relative to control; assay type: cell-based; details: read-out: Activity
[29] = Cytotoxicity in human HaCaT cells assessed as cell viability at 15.6 uM after 24 hrs by neutral red uptake assay relative to control; assay type: cell-based; details: read-out: Activity
[30] = Cytotoxicity in human HaCaT cells assessed as cell viability at 31.3 uM after 24 hrs by neutral red uptake assay relative to control; assay type: cell-based; details: read-out: Activity
[31] = Cytotoxicity in human HaCaT cells assessed as cell viability at 62.5 uM after 24 hrs by neutral red uptake assay relative to control; assay type: cell-based; details: read-out: Activity
[32] = Cytotoxicity in human HaCaT cells assessed as cell viability at 125 uM after 24 hrs by neutral red uptake assay relative to control; assay type: cell-based; details: read-out: Activity
[33] = Phototoxicity in human HaCaT cells assessed as cell viability at 3.9 uM preincubated for 60 mins followed by 7.5 J/cm2 UVA irradiation and measured after 24 hrs by neutral red uptake assay relative to control; assay type: cell-based; details: read-out: Activity
[34] = Phototoxicity in human HaCaT cells assessed as cell viability at 7.8 uM preincubated for 60 mins followed by 7.5 J/cm2 UVA irradiation and measured after 24 hrs by neutral red uptake assay relative to control; assay type: cell-based; details: read-out: Activity
[35] = Phototoxicity in human HaCaT cells assessed as cell viability at 15.6 uM preincubated for 60 mins followed by 7.5 J/cm2 UVA irradiation and measured after 24 hrs by neutral red uptake assay relative to control; assay type: cell-based; details: read-out: Activity
[36] = Phototoxicity in human HaCaT cells assessed as cell viability at 31.3 uM preincubated for 60 mins followed by 7.5 J/cm2 UVA irradiation and measured after 24 hrs by neutral red uptake assay relative to control; assay type: cell-based; details: read-out: Activity
[37] = Phototoxicity in human HaCaT cells assessed as cell viability at 62.5 uM preincubated for 60 mins followed by 7.5 J/cm2 UVA irradiation and measured after 24 hrs by neutral red uptake assay relative to control; assay type: cell-based; details: read-out: Activity
[38] = Phototoxicity in human HaCaT cells assessed as cell viability at 125 uM preincubated for 60 mins followed by 7.5 J/cm2 UVA irradiation and measured after 24 hrs by neutral red uptake assay relative to control; assay type: cell-based; details: read-out: Activity
HaCaT [39] = assay: Cytoprotection against phototoxicity in human HaCaT cells assessed as increase in cell viability at 3.9 uM preincubated for 60 mins followed by 10 J/cm2 UVA irradiation and measured after 24 hrs by neutral red uptake assay; assay type: functional, cell-based
HaCaT [40] = assay: Cytoprotection against phototoxicity in human HaCaT cells assessed as increase in cell viability at 3.9 to 31.3 uM preincubated for 60 mins followed by 150 mJ/cm2 UVB irradiation and measured after 24 hrs by neutral red uptake assay; assay type: functional, cell-based
NHDF [41] = assay: Cytoprotection against phototoxicity in human NHDF cells assessed as increase in cell viability at 3.9 to 31.3 uM preincubated for 60 mins followed by 150 mJ/cm2 UVB irradiation and measured after 24 hrs by neutral red uptake assay; assay type: functional, cell-based
HaCaT [42] = assay: Potency index, ratio of compound effect to rosmarinic acid effect for cytoprotection against phototoxicity in human HaCaT cells assessed as increase in cell viability at 3.9 uM preincubated for 60 mins followed by 150 mJ/cm2 UVB irradiation and measured after 24 hrs by neutral red uptake assay; assay type: functional
HaCaT [43] = assay: Potency index, ratio […] for cytoprotection against phototoxicity in human HaCaT cells assessed as increase in cell viability at 3.9 preincubated for 60 mins followed by 150 mJ/cm2 UVB irradiation and measured after 24 hrs by neutral red uptake assay; assay type: functional

SMILES: CN(C)CCCN1c2ccccc2Sc2ccc(Cl)cc21 [CHLORPROMAZINE]
IC50 (NHDF [1]): 25.5 µM
IC50 (HaCaT [2]): 36.1 µM

remaining at 1 h, 100 µM [3]: 100%
remaining at 1 h, 100 µM [4]: 100%
remaining at 1 h, 100 µM [5]: 100%
remaining at 1 h, 100 µM [6]: 100%
remaining at 1 h, 100 µM [7]: 94.3%
remaining at 24 h, 100 µM [8]: 100%
remaining at 24 h, 100 µM [9]: 100%
remaining at 24 h, 100 µM [10]: 92.6%
remaining at 24 h, 100 µM [11]: 44.3%
remaining at 24 h, 100 µM [12]: 0.4%
SMILES: c1nc(NCC2CCCO2)c2ncn(C3CCCO3)c2n1 (stereo unspecified)
Activity [13]: < 0.05 equiv
Activity (Nicotiana tabacum): 100%
Activity (Amaranthus caudatus): 38%
Activity (Triticum aestivum): 116%

SMILES: Clc1nc(NCC2CCCO2)c2ncn(C3CCCO3)c2n1 (stereo unspecified)
Activity (HaCaT [14]): < 10%
Activity (BJ): < 10%
viability at 24 h, 3.9 µM [15]: 103%
viability at 24 h, 7.8 µM [16]: 103%
viability at 24 h, 15.6 µM [17]: 101%
viability at 24 h, 31.3 µM [18]: 106%
viability at 24 h, 62.5 µM [19]: 102%
viability at 24 h, 125 µM [20]: 104%
viability at 24 h, 3.9 µM [21]: 100%
viability at 24 h, 7.8 µM [22]: 103%
viability at 24 h, 15.6 µM [23]: 100%
viability at 24 h, 31.3 µM [24]: 103%
viability at 24 h, 62.5 µM [25]: 105%
viability at 24 h, 125 µM [26]: 105%
viability at 24 h, 3.9 µM [27]: 104%
viability at 24 h, 7.8 µM [28]: 103%
viability at 24 h, 15.6 µM [29]: 104%
viability at 24 h, 31.3 µM [30]: 109%
viability at 24 h, 62.5 µM [31]: 111%
viability at 24 h, 125 µM [32]: 111%
viability at 24 h, 3.9 µM [33]: 105%
viability at 24 h, 7.8 µM [34]: 112%
viability at 24 h, 15.6 µM [35]: 110%
viability at 24 h, 31.3 µM [36]: 121%
viability at 24 h, 62.5 µM [37]: 126%
viability at 24 h, 125 µM [38]: 126%
Activity (HaCaT [39]): inactive
Activity (HaCaT [40]): Active
Activity (NHDF [41]): Active
Ratio (HaCaT [42]): >2
Activity [13]: < 0.05 equiv
Activity (Nicotiana tabacum): 104%
Activity (Amaranthus caudatus): 83%
Activity (Triticum aestivum): 111%
Ratio (HaCaT [43]): >2
